Assay results taken from patent publication US20250066323A1, “INHIBITORS OF HUMAN RESPIRATORY SYNCYTIAL VIRUS AND METAPNEUMOVIRUS” (priority 2023, published 2025).
Like-named read-outs stand apart in the source and are kept apart here.

Tested on: RSV-A2-GFP
Assay: RSV-A2-GFP viral replication assay
Format: cell-based, Human Respiratory Syncytial Virus
From the text: GFP sequence was derived from pJTI™ R4 Dest CMV N-EmGFP pA Vector (Invitrogen) and was cloned into the intergenic sequence between wild-type RSV-A2 P and M genes using standard recombineering techniques. Recombinant RSV-A2-GFP was propagated in Hep2 cells (human cells contains HeLa marker chromosomes and were derived via HeLa contamination, ATCC CCL-23) with infection Multiplicity of Infection (MOI) of 0.1. Virus was harvested 3 days after infection by collecting all culture material and freeze-thaw the viral culture in liquid nitrogen for at least 5 times. To generating virus working stocks, thaw frozen samples in 37° C. water bath then centrifuge at 218 g for 15 min at 4° C. Add 1/10 of 10×SPG (Biological Industries 06-3061-01-5A), mix, aliquot supernatant, and quick-freeze in liquid nitrogen then transfer to −80° C. freezer for storage. Virus titer was determined by automated plaque assay in HEp-2 cells following methods described previously (Wen Z. et al.; J Virol Methods. 2019 January; 263:88-95).
Calu-1 cells (human lung epidermoid carcinoma, ATCC HTB-54) assay ready freezedown (ARF generation described separately) were used in assays. Compound plates were prepared by dispensing compounds dissolved in DMSO into wells of 384 well coming 3985 polystyrene flat clear bottom optical imaging microplates (202.5 nL/well) using an ECHO acoustic dispenser. Each compound was tested in a 10-point serial 3-fold dilution (typical final concentrations: 403 nM-0.02 nM and 40.3 nM-0.002 nM). […] To set up the assay, thaw ARF vial(s) in 37° C. water bath until small ice crystal remain and resuspend into assay media (DMEM containing 2% FBS, 100 U/ml Penicillin-Streptomycin). Count cells using default parameters on ViCell and dilute to 20,000 cells per ml in assay media. Add RSV GFP to cells at 24,000 pfu/ml (MOI=1.2). Mix by gentle inversion. 10 μl/well of 100% DMSO was dispensed to CellTiter-Glo (CTG) assay Max_E controls wells. Dispense cells at 50 μl/well using Bravo and 50 μl filtered tips into compound plates. Cover plates with MicroClime lids loaded with 7.5 ml of assay media to minimize evaporation. Incubate at 37 degrees C. and 5% CO2 for 96 hrs. Following incubation, distinct, GFP-expressing cells are counted using an Acumen imaging system with appropriate settings. A same-well CTG assay is performed by adding 10 μl/well reconstituted CellTiter-Glo reagent (Promega G7573) and reading plates on PerkinElmer Envision according to manufacturer's instructions. Raw data were loaded and analyzed in ActivityBase. Antiviral IC50 and cytotoxicity CC50 values were determined using a 4 parameter logistic fit based on the Levenberg-Marquardt algorithm. Model: 205-4 Parameter Logistic.
Calu-1 cells were purchased from ATCC (Cat #HTB-54) and are expanded in growth media (DMEM containing 10% FBS, 100 U/ml Penicillin-Streptomycin). To make ARF, remove and discard cell culture media, briefly rinse the cell layer with PBS to remove all traces of serum. Add 2.5 ml of TrypLE Express solution and incubate until cells dislodge, then add growth media and resuspend the cells by gentle pipetting. Count cells for concentration and determine viability using a ViCell. Centrifuge at RT, 300 g for 5 min to pellet cells. Gently aspirate supernatant, flick pellet to loosen cells. Resuspend cells in an appropriate volume of freezing medium (DMEM containing 10% DMSO, 10% FBS, 100 U/ml Penicillin-Streptomycin) to achieve 5×10^6/ml. Transfer 1 ml of cell suspension to freezing vials. Put vials to CoolCell cryopreservation container and place CoolCell container upright in a −80° C. freezer overnight before transferring vials to liquid nitrogen vapor for storage.

[1] = read-out: RSV EC50, Calu-1 cells, RSV-A2-GFP MOI=1.2, 96 hrs, GFP-expressing cells counted
[2] = human respiratory syncytial virus, Calu-1, 96 h, read-out: RSV EC50, Calu-1 cells, RSV-A2-GFP MOI=1.2, 96 hrs, GFP-expressing cells counted

Cn1nc(-n2cccn2)cc1C(=O)NCC(C)(O)c1cc2c(c(-c3ccc(F)cc3)n1)OCC2(C)C(N)=O (single isomer, unassigned) [Example 29-A, 7-(4-fluorophenyl)-5-(2-hydroxy-1-(1′-methyl-1′H-[1,3′-bipyrazole]-5′-carboxamido)propan-2-yl)-3-methyl-2,3-dihydrofuro[2,3-c]pyridine-3-carboxamide]
EC50 [1]: 10 to 100 nM

Cn1nc(-n2cccn2)cc1C(=O)NCC(C)(O)c1cc2c(c(-c3ccc(F)cc3)n1)OCC2(C)C(N)=O (single isomer, unassigned) [Example 29-B, 7-(4-fluorophenyl)-5-(2-hydroxy-1-(1′-methyl-1′H-[1,3′-bipyrazole]-5′-carboxamido)propan-2-yl)-3-methyl-2,3-dihydrofuro[2,3-c]pyridine-3-carboxamide]
EC50 [1]: > 100 nM

Cn1nc(-n2cccn2)cc1C(=O)NCC(C)(O)c1cc2c(c(-c3ccc(F)cc3)n1)OCC2(C)C(N)=O (single isomer, unassigned) [Example 29-C, 7-(4-fluorophenyl)-5-(2-hydroxy-1-(1′-methyl-1′H-[1,3′-bipyrazole]-5′-carboxamido)propan-2-yl)-3-methyl-2,3-dihydrofuro[2,3-c]pyridine-3-carboxamide]
EC50 [1]: < 10 nM

Cn1nc(-n2cccn2)cc1C(=O)NCC(C)(O)c1cc2c(c(-c3ccc(F)cc3)n1)OCC2(C)C(N)=O (single isomer, unassigned) [Example 29-D, 7-(4-fluorophenyl)-5-(2-hydroxy-1-(1′-methyl-1′H-[1,3′-bipyrazole]-5′-carboxamido)propan-2-yl)-3-methyl-2,3-dihydrofuro[2,3-c]pyridine-3-carboxamide]
EC50 [1]: 10 to 100 nM

Cn1nc(-c2cscn2)cc1C(=O)NCC(O)(c1cc2c(c(-c3ccc(F)cc3)n1)OCC2(C)C(N)=O)C(F)(F)F (single isomer, unassigned) [Example 30-B, 7-(4-fluorophenyl)-3-methyl-5-(1,1,1-trifluoro-2-hydroxy-3-(1-methyl-3-(thiazol-4-yl)-1H-pyrazole-5-carboxamido)propan-2-yl)-2,3-dihydrofuro[2,3-c]pyridine-3-carboxamide]
EC50 [2]: < 10 nM

Cn1nc(-c2cscn2)cc1C(=O)NCC(C)(O)c1cc(C(C)(C)C(N)=O)cc(-c2ccc(F)cc2)n1 (single isomer, unassigned) [Example 31-A, N-(2-(4-(1-amino-2-methyl-1-oxopropan-2-yl)-6-(4-fluorophenyl)pyridin-2-yl)-2-hydroxypropyl)-1-methyl-3-(thiazol-4-yl)-1H-pyrazole-5-carboxamide]
EC50 [1]: > 100 nM

Cn1nc(-c2cscn2)cc1C(=O)NCC(C)(O)c1cc(C(C)(C)C(N)=O)cc(-c2ccc(F)cc2)n1 (single isomer, unassigned) [Example 31-B, N-(2-(4-(1-amino-2-methyl-1-oxopropan-2-yl)-6-(4-fluorophenyl)pyridin-2-yl)-2-hydroxypropyl)-1-methyl-3-(thiazol-4-yl)-1H-pyrazole-5-carboxamide]
EC50 [1]: < 10 nM

Cn1nc(-c2cscn2)cc1C(=O)NCC(C)(O)c1cc(C(C)(C)O)cc(-c2ccc(F)cc2)n1 (single isomer, unassigned) [Example 32-A, N-(2-(6-(4-fluorophenyl)-4-(2-hydroxypropan-2-yl)pyridin-2-yl)-2-hydroxypropyl)-1-methyl-3-(thiazol-4-yl)-1H-pyrazole-5-carboxamide]
EC50 [1]: > 100 nM

Cn1nc(-c2cscn2)cc1C(=O)NCC(C)(O)c1cc(C(C)(C)O)cc(-c2ccc(F)cc2)n1 (single isomer, unassigned) [Example 32-B, N-(2-(6-(4-fluorophenyl)-4-(2-hydroxypropan-2-yl)pyridin-2-yl)-2-hydroxypropyl)-1-methyl-3-(thiazol-4-yl)-1H-pyrazole-5-carboxamide]
EC50 [1]: < 10 nM

CC(N)C(C)(C)c1cc(-c2ccc(F)cc2)nc(C(C)(O)CNC(=O)c2cc(-n3cccn3)nn2C)c1 (single isomer, unassigned) [Example 33-A, N-(2-(4-(3-amino-2-methylbutan-2-yl)-6-(4-fluorophenyl)pyridin-2-yl)-2-hydroxypropyl)-1′-methyl-1′H-[1,3′-bipyrazole]-5′-carboxamide]
EC50 [1]: > 100 nM

CC(N)C(C)(C)c1cc(-c2ccc(F)cc2)nc(C(C)(O)CNC(=O)c2cc(-n3cccn3)nn2C)c1 (single isomer, unassigned) [Example 33-B, N-(2-(4-(3-amino-2-methylbutan-2-yl)-6-(4-fluorophenyl)pyridin-2-yl)-2-hydroxypropyl)-1′-methyl-1′H-[1,3′-bipyrazole]-5′-carboxamide]
EC50 [1]: > 100 nM

CC(N)C(C)(C)c1cc(-c2ccc(F)cc2)nc(C(C)(O)CNC(=O)c2cc(-n3cccn3)nn2C)c1 (single isomer, unassigned) [Example 33-C, N-(2-(4-(3-amino-2-methylbutan-2-yl)-6-(4-fluorophenyl)pyridin-2-yl)-2-hydroxypropyl)-1′-methyl-1′H-[1,3′-bipyrazole]-5′-carboxamide]
EC50 [1]: < 10 nM

CC(N)C(C)(C)c1cc(-c2ccc(F)cc2)nc(C(C)(O)CNC(=O)c2cc(-n3cccn3)nn2C)c1 (single isomer, unassigned) [Example 33-D, N-(2-(4-(3-amino-2-methylbutan-2-yl)-6-(4-fluorophenyl)pyridin-2-yl)-2-hydroxypropyl)-1′-methyl-1′H-[1,3′-bipyrazole]-5′-carboxamide]
EC50 [1]: < 10 nM

Cn1nc(-n2cccn2)cc1C(=O)NCC(O)c1cc(C(C)(C)N)cc(-c2ccc(F)cc2)n1 (single isomer, unassigned) [Example 34-A, N-(2-(4-(2-aminopropan-2-yl)-6-(4-fluorophenyl)pyridin-2-yl)-2-hydroxyethyl)-1′-methyl-1′H-[1,3′-bipyrazole]-5′-carboxamide]
EC50 [1]: < 10 nM

Cn1nc(-n2cccn2)cc1C(=O)NCC(O)c1cc(C(C)(C)N)cc(-c2ccc(F)cc2)n1 (single isomer, unassigned) [Example 34-B, N-(2-(4-(2-aminopropan-2-yl)-6-(4-fluorophenyl)pyridin-2-yl)-2-hydroxyethyl)-1′-methyl-1′H-[1,3′-bipyrazole]-5′-carboxamide]
EC50 [1]: > 100 nM

Cn1nc(-n2cccn2)cc1C(=O)NCC(O)(c1cc(C(C)(C)N)cc(-c2ccc(F)cc2)n1)C1CC1 (single isomer, unassigned) [Example 35-B, N-(2-(4-(2-aminopropan-2-yl)-6-(4-fluorophenyl)pyridin-2-yl)-2-cyclopropyl-2-hydroxyethyl)-1′-methyl-1′H-[1,3′-bipyrazole]-5′-carboxamide]
EC50 [2]: < 10 nM

Cn1nc(-n2cccn2)cc1C(=O)NCC(O)(c1cc(C(C)(C)N)cc(-c2ccc(F)cc2)n1)C(F)(F)F (single isomer, unassigned) [Example 36-A, N-(2-(4-(2-aminopropan-2-yl)-6-(4-fluorophenyl)pyridin-2-yl)-3,3,3-trifluoro-2-hydroxypropyl)-1′-methyl-1′H-[1,3′-bipyrazole]-5′-carboxamide]
EC50 [2]: < 10 nM

Cn1nc(-n2cccn2)cc1C(=O)NCC(C)(O)c1cc(C(C)(C)N)cc(-c2ccc(C(F)(F)F)cc2)n1 (single isomer, unassigned) [Example 37-B, N-(2-(4-(2-aminopropan-2-yl)-6-(4-(trifluoromethyl)phenyl)pyridin-2-yl)-2-hydroxypropyl)-1′-methyl-1′H-[1,3′-bipyrazole]-5′-carboxamide]
EC50 [2]: < 10 nM

Cn1nc(-n2cccn2)cc1C(=O)NCC(C)(O)c1cc(C(C)(C)N)cc(-c2ccc(F)c(F)c2)n1 (single isomer, unassigned) [Example 38-B, N-(2-(4-(2-aminopropan-2-yl)-6-(3,4-difluorophenyl)pyridin-2-yl)-2-hydroxypropyl)-1′-methyl-1′H-[1,3′-bipyrazole]-5′-carboxamide]
EC50 [2]: < 10 nM
